Starred links: 1 amine or outer side, 2 acyl side, 3 side chain; linkers in the order of their positions; H or OH if unused. Non-standard residues stand in square brackets, D forms with d. Residues, ends and D or L forms follow the SMILES beside them. *: point of attachment. dAla(cis-4-NHCOPyz-cHex) = N[C@H](C[C@H]1CC[C@@H](NC(=O)c2cnccn2)CC1)C(=O)O; X3 = O=C(N[C@H]1CC[C@H](C[C@@H](N[*:1])C(=O)[*:2])CC1)c1cnccn1; dPhe(3,4-Cl2) = N[C@H](Cc1ccc(Cl)c(Cl)c1)C(=O)O; dPhe(4-Cl) = N[C@H](Cc1ccc(Cl)cc1)C(=O)O; d2Nal = N[C@H](Cc1ccc2ccccc2c1)C(=O)O; Picolinoyl(6-Me) = Cc1cccc(C(=O)*)n1; Lys(iPr) = CC(C)NCCCC[C@H](N)C(=O)O; Orn(iPr) = CC(C)NCCC[C@H](N)C(=O)O; Pyrazinecarbonyl = O=C(c1cnccn1)*; aIle = CC[C@@H](C)[C@H](N)C(=O)O; d3Pal = N[C@H](Cc1cccnc1)C(=O)O; Nicotinoyl = O=C(c1cccnc1)*; Picolinoyl = O=C(c1ccccn1)*; Pip = O=C(O)[C@@H]1CCCCN1; Nle = CCCC[C@H](N)C(=O)O; dAbu = CC[C@@H](N)C(=O)O; Nva = CCC[C@H](N)C(=O)O; Abu = CC[C@H](N)C(=O)O
These compounds were tested on anaesthesized rats (assay: wheal test, intradermal injection). Settings: 10 ug peptide intradermally.
Format: in vivo, rat
Design: Wheal (wheal response): unit not given here
Method in brief: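 Anaesthetized rats given intradermal injection of 10 ug peptide in 100 ul saline; area of the wheal calculated from its diameter.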

Structure (SMILES)	Wheal Area
CC(=O)N[C@H](Cc1ccc2ccccc2c1)C(=O)N[C@H](Cc1ccc(Cl)cc1)C(=O)N[C@H](Cc1cccnc1)C(=O)N[C@@H](CO)C(=O)N[C@@H](CCCCNC(=O)c1cccnc1)C(=O)N[C@H](C[C@H]1CC[C@H](NC(=O)c2cnccn2)CC1)C(=O)N[C@@H](CC(C)C)C(=O)N[C@@H](CCCCNC(C)C)C(=O)N1CCC[C@H]1C(=O)N[C@H](C)C(N)=O [compound 25805] (Ac-[d2Nal][dPhe(4-Cl)][d3Pal]SK(Nicotinoyl)[X3]L[Lys(iPr)]P[dA]-NH2)	129.6 ± 8.8 mm^2 /10 μg
CC(=O)N[C@H](Cc1ccc2ccccc2c1)C(=O)N[C@H](Cc1ccc(Cl)cc1)C(=O)N[C@H](Cc1cccnc1)C(=O)N[C@@H](CO)C(=O)N[C@@H](CCCCNC(=O)c1cccnc1)C(=O)N[C@H](C[C@H]1CC[C@@H](NC(=O)c2cnccn2)CC1)C(=O)N[C@@H](CC(C)C)C(=O)N[C@@H](CCCCNC(C)C)C(=O)N1CCC[C@H]1C(=O)N[C@H](C)C(N)=O [compound 25806] (Ac-[d2Nal][dPhe(4-Cl)][d3Pal]SK(Nicotinoyl)[dAla(cis-4-NHCOPyz-cHex)]L[Lys(iPr)]P[dA]-NH2)	101.7 ± 5.0 mm^2 /10 μg
CC(=O)N[C@H](Cc1ccc2ccccc2c1)C(=O)N[C@H](Cc1ccc(Cl)c(Cl)c1)C(=O)N[C@H](Cc1cccnc1)C(=O)N[C@@H](CO)C(=O)N[C@@H](CCCCNC(=O)c1ccccn1)C(=O)N[C@H](CCCCNC(=O)c1ccccn1)C(=O)N[C@@H](CC(C)C)C(=O)N[C@@H](CCCCNC(C)C)C(=O)N1CCC[C@H]1C(=O)N[C@H](C)C(N)=O [compound 25807] (Ac-[d2Nal][dPhe(3,4-Cl2)][d3Pal]SK(Picolinoyl)[dK](Picolinoyl)L[Lys(iPr)]P[dA]-NH2)	139.8 ± 7.1 mm^2 /10 μg
CC(=O)N[C@H](Cc1ccc2ccccc2c1)C(=O)N[C@H](Cc1ccc(Cl)cc1)C(=O)N[C@H](Cc1cccnc1)C(=O)N[C@@H](CO)C(=O)N[C@@H](CCCCNC(=O)c1cccc(C)n1)C(=O)N[C@H](CCCCNC(=O)c1cccc(C)n1)C(=O)N[C@@H](CC(C)C)C(=O)N[C@@H](CCCCNC(C)C)C(=O)N1CCC[C@H]1C(=O)N[C@H](C)C(N)=O [compound 25808] (Ac-[d2Nal][dPhe(4-Cl)][d3Pal]SK(Picolinoyl(6-Me))[dK](Picolinoyl(6-Me))L[Lys(iPr)]P[dA]-NH2)	106.2 ± 4.3 mm^2 /10 μg
CC(=O)N[C@H](Cc1ccc2ccccc2c1)C(=O)N[C@H](Cc1ccc(Cl)cc1)C(=O)N[C@H](Cc1cccnc1)C(=O)N[C@@H](CO)C(=O)N[C@@H](CCCCNC(=O)c1ccccn1)C(=O)N[C@H](CCCCNC(=O)c1ccccn1)C(=O)N[C@@H](CC(C)C)C(=O)N[C@@H](CCCNC(C)C)C(=O)N1CCC[C@H]1C(=O)N[C@H](C)C(N)=O [compound 25933] (Ac-[d2Nal][dPhe(4-Cl)][d3Pal]SK(Picolinoyl)[dK](Picolinoyl)L[Orn(iPr)]P[dA]-NH2)	113.0 ± 0 mm^2 /10 μg
CC(=O)N[C@H](Cc1ccc2ccccc2c1)C(=O)N[C@H](Cc1ccc(Cl)cc1)C(=O)N[C@H](Cc1cccnc1)C(=O)N[C@@H](CO)C(=O)N[C@@H](CCCCNC(=O)c1ccccn1)C(=O)N[C@H](CCCCNC(=O)c1ccccn1)C(=O)N[C@@H](Cc1c[nH]c2ccccc12)C(=O)N[C@@H](CCCCNC(C)C)C(=O)N1CCC[C@H]1C(=O)N[C@H](C)C(N)=O [compound 25935] (Ac-[d2Nal][dPhe(4-Cl)][d3Pal]SK(Picolinoyl)[dK](Picolinoyl)W[Lys(iPr)]P[dA]-NH2)	78.5 ± 0 mm^2 /10 μg
CC(=O)N[C@H](Cc1ccc2ccccc2c1)C(=O)N[C@H](Cc1ccc(Cl)cc1)C(=O)N[C@H](Cc1cccnc1)C(=O)N[C@@H](CO)C(=O)N[C@@H](CCCCNC(=O)c1cccnc1)C(=O)N[C@H](CCCCNC(=O)c1cnccn1)C(=O)N[C@@H](CC(C)C)C(=O)N[C@@H](CCCNC(C)C)C(=O)N1CCC[C@H]1C(=O)N[C@H](C)C(N)=O [compound 25991] (Ac-[d2Nal][dPhe(4-Cl)][d3Pal]SK(Nicotinoyl)[dK](Pyrazinecarbonyl)L[Orn(iPr)]P[dA]-NH2)	104.3 ± 10.5 mm^2 /10 μg
CC(=O)N[C@H](Cc1ccc(Cl)c(Cl)c1)C(=O)N[C@H](Cc1ccc(Cl)cc1)C(=O)N[C@H](Cc1cccnc1)C(=O)N[C@@H](CO)C(=O)N[C@@H](CCCCNC(=O)c1ccccn1)C(=O)N[C@H](CCCCNC(=O)c1ccccn1)C(=O)N[C@@H](CC(C)C)C(=O)N[C@@H](CCCCNC(C)C)C(=O)N1CCC[C@H]1C(=O)N[C@H](C)C(N)=O [compound 26100] (Ac-[dPhe(3,4-Cl2)][dPhe(4-Cl)][d3Pal]SK(Picolinoyl)[dK](Picolinoyl)L[Lys(iPr)]P[dA]-NH2)	116.2 ± 3.7 mm^2 /10 μg

Second part, the compound after the results:

Wheal Area	Structure (SMILES)
97.9 ± 2.9 mm^2 /10 μg	CC(=O)N[C@H](Cc1ccc2ccccc2c1)C(=O)N[C@H](Cc1ccc(Cl)cc1)C(=O)N[C@H](Cc1cccnc1)C(=O)N[C@@H](CO)C(=O)N[C@@H](CCCCNC(=O)c1ccccn1)C(=O)N[C@H](CCCCNC(=O)c1ccccn1)C(=O)N[C@H](C(=O)N[C@@H](CCCCNC(C)C)C(=O)N1CCC[C@H]1C(=O)N[C@H](C)C(N)=O)C(C)C [compound 25934] (Ac-[d2Nal][dPhe(4-Cl)][d3Pal]SK(Picolinoyl)[dK](Picolinoyl)V[Lys(iPr)]P[dA]-NH2)
97.9 ± 2.9 mm^2 /10 μg	CC[C@@H](C)[C@H](NC(=O)[C@@H](CCCCNC(=O)c1ccccn1)NC(=O)[C@H](CCCCNC(=O)c1ccccn1)NC(=O)[C@H](CO)NC(=O)[C@@H](Cc1cccnc1)NC(=O)[C@@H](Cc1ccc(Cl)cc1)NC(=O)[C@@H](Cc1ccc2ccccc2c1)NC(C)=O)C(=O)N[C@@H](CCCCNC(C)C)C(=O)N1CCC[C@H]1C(=O)N[C@H](C)C(N)=O [compound 25936] (Ac-[d2Nal][dPhe(4-Cl)][d3Pal]SK(Picolinoyl)[dK](Picolinoyl)[aIle][Lys(iPr)]P[dA]-NH2)
95.0 ± 0 mm^2 /10 μg	CC(=O)N[C@H](Cc1ccc2ccccc2c1)C(=O)N[C@H](Cc1ccc(Cl)cc1)C(=O)N[C@H](Cc1cccnc1)C(=O)N[C@@H](CO)C(=O)N[C@@H](CCCCNC(=O)c1ccccn1)C(=O)N[C@H](CCCCNC(=O)c1ccccn1)C(=O)N[C@@H](CC(C)C)C(=O)N[C@@H](CCCCNC(C)C)C(=O)N1CCCC[C@H]1C(=O)N[C@H](C)C(N)=O [compound 25937] (Ac-[d2Nal][dPhe(4-Cl)][d3Pal]SK(Picolinoyl)[dK](Picolinoyl)L[Lys(iPr)][Pip][dA]-NH2)
107.0 ± 6.0 mm^2 /10 μg	CCCC[C@H](NC(=O)[C@@H](CCCCNC(=O)c1ccccn1)NC(=O)[C@H](CCCCNC(=O)c1ccccn1)NC(=O)[C@H](CO)NC(=O)[C@@H](Cc1cccnc1)NC(=O)[C@@H](Cc1ccc(Cl)cc1)NC(=O)[C@@H](Cc1ccc2ccccc2c1)NC(C)=O)C(=O)N[C@@H](CCCCNC(C)C)C(=O)N1CCC[C@H]1C(=O)N[C@H](C)C(N)=O [compound 25988] (Ac-[d2Nal][dPhe(4-Cl)][d3Pal]SK(Picolinoyl)[dK](Picolinoyl)[Nle][Lys(iPr)]P[dA]-NH2)
95.3 ± 6.0 mm^2 /10 μg	CCC[C@H](NC(=O)[C@@H](CCCCNC(=O)c1ccccn1)NC(=O)[C@H](CCCCNC(=O)c1ccccn1)NC(=O)[C@H](CO)NC(=O)[C@@H](Cc1cccnc1)NC(=O)[C@@H](Cc1ccc(Cl)cc1)NC(=O)[C@@H](Cc1ccc2ccccc2c1)NC(C)=O)C(=O)N[C@@H](CCCCNC(C)C)C(=O)N1CCC[C@H]1C(=O)N[C@H](C)C(N)=O [compound 25989] (Ac-[d2Nal][dPhe(4-Cl)][d3Pal]SK(Picolinoyl)[dK](Picolinoyl)[Nva][Lys(iPr)]P[dA]-NH2)
91.0 ± 5.4 mm^2 /10 μg	CC[C@H](NC(=O)[C@@H](CCCCNC(=O)c1ccccn1)NC(=O)[C@H](CCCCNC(=O)c1ccccn1)NC(=O)[C@H](CO)NC(=O)[C@@H](Cc1cccnc1)NC(=O)[C@@H](Cc1ccc(Cl)cc1)NC(=O)[C@@H](Cc1ccc2ccccc2c1)NC(C)=O)C(=O)N[C@@H](CCCCNC(C)C)C(=O)N1CCC[C@H]1C(=O)N[C@H](C)C(N)=O [compound 25990] (Ac-[d2Nal][dPhe(4-Cl)][d3Pal]SK(Picolinoyl)[dK](Picolinoyl)[Abu][Lys(iPr)]P[dA]-NH2)
109.9 ± 3.0 mm^2 /10 μg	CC[C@@H](NC(=O)[C@@H]1CCCN1C(=O)[C@H](CCCCNC(C)C)NC(=O)[C@H](CC(C)C)NC(=O)[C@@H](CCCCNC(=O)c1ccccn1)NC(=O)[C@H](CCCCNC(=O)c1ccccn1)NC(=O)[C@H](CO)NC(=O)[C@@H](Cc1cccnc1)NC(=O)[C@@H](Cc1ccc(Cl)cc1)NC(=O)[C@@H](Cc1ccc2ccccc2c1)NC(C)=O)C(N)=O [compound 26019] (Ac-[d2Nal][dPhe(4-Cl)][d3Pal]SK(Picolinoyl)[dK](Picolinoyl)L[Lys(iPr)]P[dAbu]-NH2)
110.7 ± 2.3 mm^2 /10 μg	CC[C@H](C)[C@H](NC(=O)[C@@H](CCCCNC(=O)c1ccccn1)NC(=O)[C@H](CCCCNC(=O)c1ccccn1)NC(=O)[C@H](CO)NC(=O)[C@@H](Cc1cccnc1)NC(=O)[C@@H](Cc1ccc(Cl)cc1)NC(=O)[C@@H](Cc1ccc2ccccc2c1)NC(C)=O)C(=O)N[C@@H](CCCCNC(C)C)C(=O)N1CCC[C@H]1C(=O)N[C@H](C)C(N)=O [compound 26020] (Ac-[d2Nal][dPhe(4-Cl)][d3Pal]SK(Picolinoyl)[dK](Picolinoyl)I[Lys(iPr)]P[dA]-NH2)
103.9 ± 3.7 mm^2 /10 μg	CC(=O)N[C@H](Cc1ccc2ccccc2c1)C(=O)N[C@H](Cc1ccc(Cl)cc1)C(=O)N[C@H](Cc1cccnc1)C(=O)N[C@@H](CO)C(=O)N[C@@H](CCCCNC(=O)c1ccccn1)C(=O)N[C@H](CCCCNC(=O)c1ccccn1)C(=O)N[C@@H](C)C(=O)N[C@@H](CCCCNC(C)C)C(=O)N1CCC[C@H]1C(=O)N[C@H](C)C(N)=O [compound 26099] (Ac-[d2Nal][dPhe(4-Cl)][d3Pal]SK(Picolinoyl)[dK](Picolinoyl)A[Lys(iPr)]P[dA]-NH2)

Same assay, conditions: Table XIV and text, unit not given

Structure (SMILES)	Wheal (wheal response)
CC(=O)N[C@H](Cc1ccc2ccccc2c1)C(=O)N[C@H](Cc1ccc(Cl)cc1)C(=O)N[C@H](Cc1cccnc1)C(=O)N[C@@H](CO)C(=O)N[C@@H](CCCCNC(=O)c1ccccn1)C(=O)N[C@H](C[C@H]1CC[C@@H](NC(=O)c2cnccn2)CC1)C(=O)N[C@@H](CC(C)C)C(=O)N[C@@H](CCCCNC(C)C)C(=O)N1CCC[C@H]1C(=O)N[C@H](C)C(N)=O [compound 25897] (Ac-[d2Nal][dPhe(4-Cl)][d3Pal]SK(Picolinoyl)[dAla(cis-4-NHCOPyz-cHex)]L[Lys(iPr)]P[dA]-NH2)	122.8
CC(=O)N[C@H](Cc1ccc2ccccc2c1)C(=O)N[C@H](Cc1ccc(Cl)cc1)C(=O)N[C@H](Cc1cccnc1)C(=O)N[C@@H](CO)C(=O)N[C@@H](CCCCNC(=O)c1ccccn1)C(=O)N[C@H](CCCCNC(=O)c1ccccn1)C(=O)N[C@@H](CC(C)C)C(=O)N[C@@H](CCCNC(C)C)C(=O)N1CCC[C@H]1C(=O)N[C@H](C)C(N)=O [compound 25933] (Ac-[d2Nal][dPhe(4-Cl)][d3Pal]SK(Picolinoyl)[dK](Picolinoyl)L[Orn(iPr)]P[dA]-NH2)	113.0 ± 0

Source: US5763404A, “Methods for using LHRH antagonists with low histamine release” (priority 1995, dated 1998)
